Experimental data published in patent US9187469B2, “Morpholinylbenzotriazines for use in cancer therapy” (Merck Patent GmbH, priority 2011, dated 2015).
Like-named read-outs stand apart in the source and are kept apart here.

How the values were obtained:
DNA-PK [1] = molecular target: T1, DNA-PK (Homo sapiens (Human), UniProt P78527); assay: DNA-PK biochemical assay (FlashPlate kinase assay, Example 4); conditions: 5 μM ATP
Experimental: The kinase assay was carried out in streptavidin-coated […] microtitre FlashPlates®. To this end, 1.5 μg of the DNA-PK/protein complex and 100 ng of biotinylated substrate, such as, for example, PESQEAFADLWKK biotin-NH2 (“biotin-DNA-PK peptide”), in a total volume of 36.5 μl (34.25 mM HEPES/KOH, 7.85 mM Tris-HCl, 68.5 mM KCl, 5 μM ATP, 6.85 mM MgCl2, 0.5 mM EDTA, 0.14 mM EGTA, 0.69 mM DTT, pH 7.4), were incubated at room temperature for 90 min with 500 ng of DNA from calf thymus, 0.1 μCi of 33P-ATP and 1.8% of DMSO per well with or without the test compound. The reaction was stopped using 50 μl/well of 200 mM EDTA. After incubation for a further 30 min at room temperature, the liquid was removed. Each well was washed three times with 100 μl of 0.9% sodium chloride solution. A non-specific reaction (blank value) was determined using 10 μM of a proprietary kinase inhibitor. The radioactivity measurement was carried out by means of a TopCount. IC50 values were calculated in RS1 (Kashishian et al. (2003) Molecular Cancer Therapeutics 1257) and are compiled in Table 1.

HCT116 cells = assay: Cellular colony growth test with X-ray irradiation (Example 6); type: cell-based; conditions: Homo sapiens, HCT-116; HCT116, at 4.8 Gray
Experimental: The colorectal carcinoma cell line HCT116 was cultivated in MEM alpha medium with 10% of foetal calf serum, 1 mM sodium pyruvate and 2 mM glutamine at 37° C. and 10% CO2. The cells were detached from the base of the culture vessels with the aid of trypsine/EDTA, centrifuged off in centrifuge tubes and taken up in fresh medium. The cell density was subsequently determined. 300 cells were sown out in 6-well cell culture plates in 2 ml of culture medium and cultivated overnight. Next day, the cells were treated with test substances for one hour before the cell culture plates were treated with defined doses of X-rays (in general 0, 2.4, 4.8, 12 Gray; irradiation instrument: Faxitron RX-650; Faxitron X-Ray LLC, USA). In order to determine the dose/effect relationships, the cells were treated with various concentrations of a test substance. After irradiation, the cells are cultivated for a further 24 hours in the presence of the test substance, the culture medium was then replaced with culture medium without test substance, and the cells were cultivated for a further 6-8 days. The cell colonies formed were subsequently stained with the aid of Crystal Violet and counted in a colony counter (Gelcount, Oxford Optronics, UK). Dose/effect curves, in particular IC50 values, were determined using a curve adaptation function for nonlinear dose/effect relationships.

[2] = system: DNA-PK phosphorylation at serine 2056 in HCT116 cells; assay: Cellular DNA-PK phosphorylation at serine 2056 (Example 5); type: cell-based; conditions: 10 μM bleomycin, six hours
Experimental: HCT116 cells were cultivated in MEM alpha medium with 10% of foetal calf serum, 1 mM sodium pyruvate and 2 mM glutamine at 37° C. and 10% CO2. The cells were detached from the base of the culture vessels with the aid of trypsine/EDTA, centrifuged off in centrifuge tubes and taken up in fresh medium. The cell density was subsequently determined. 200,000 cells were sown per cavity of a 12-well cell culture plate in 1 ml of culture medium and cultivated overnight. Next day, 10 μM bleomycin and test substances in fresh culture medium was added to the cells and these were cultivated for a further six hours. Cell lysis was subsequently carried out. The cell lysates were investigated by SDS polyacrylamide gel electrophoresis by means of DNA-PK-specific antibodies (Abcam ab13852: total DNA-PK; ab18192: phosphoserine 2056 DNA-PK) and Western Blotting. The enzymatic reaction was developed with the aid of a chemiluminescence reagent. The chemiluminescence was recorded with the aid of a documentation system (VersaDoc™, Bio-Rad, USA) and evaluated densitometrically with the aid of instrument-specific software (Quantity One). The signals with phospho-DNA-PK-specific antibodies were standardised to the signal with the antibody against the total protein DNA-PK. IC50 values and percentage inhibition data were determined by referencing to the signal level of the bleomycin-treated vehicle control group.

mammal cells = conditions: Rosenzweig et al. (1999); cited from earlier work
DNA-PK [3] = molecular target: T1, DNA-PK; conditions: Hardcastle et al. (2005); cited from earlier work
[4] = cited from earlier work
[5] = system: kinases of the PI3K isoenzyme family; conditions: cited from earlier work

IC50 (DNA-PK [1]; read-out: Bonding DNA-PK IC50) [nM]	Compound	other results
< 100	Cc1cnc([C@@H](O)[C@H]2CCCN(c3nnnc4cc(N5CCOCC5)ccc34)C2)s1 [No. 12, (S)-(5-Methyl-thiazol-2-yl)-[(S)-1-(7-morpholin-4-ylbenzo[d]-1,2,3-triazin-4-yl)-piperidin-3-yl]-methanol]	IC50 (HCT116 cells): < 400 nM
< 100	COc1ccc([C@@H](O)[C@H]2CCCN(c3nnnc4cc(N5CCOCC5)ccc34)C2)cn1 [compound 16, (S)-(6-Methoxy-pyridin-3-yl)-[(S)-1-(7-morpholin-4-ylbenzo[d]-1,2,3-triazin-4-yl)-piperidin-3-yl]-methanol]	
< 100	C[C@@](O)(c1nccs1)[C@H]1CCCN(c2nnnc3cc(N4CCOCC4)ccc23)C1 [compound 9, (S)-1-[(S)-1-(7-Morpholin-4-yl-benzo[d]-1,2,3-triazin-4-yl)-piperidin-3-yl]-1-thiazol-2-yl-ethanol]	
< 100	Cc1nc([C@@H](O)[C@H]2CCCN(c3nnnc4cc(N5CCOCC5)ccc34)C2)sc1C [compound 11, (S)-(4,5-Dimethyl-thiazol-2-yl)-[(S)-1-(7-morpholin-4-ylbenzo[d]-1,2,3-triazin-4-yl)-piperidin-3-yl]-methanol]	
< 100	CC(C)(C)n1cc([C@@H](O)[C@H]2CCCN(c3nnnc4cc(N5CCOCC5)ccc34)C2)cn1 [compound 19, (S)-(1-tert-Butyl-1H-pyrazol-4-yl)-[(S)-1-(7-morpholin-4-yl-benzo[d]-1,2,3-triazin-4-yl)-piperidin-3-yl]-methanol]	
< 100	Cc1cnc([C@H](O)[C@H]2CCCN(c3nnnc4cc(N5CCOCC5)ccc34)C2)s1 [compound 13, (R)-(5-Methyl-thiazol-2-yl)-[(S)-1-(7-morpholin-4-ylbenzo[d]-1,2,3-triazin-4-yl)-piperidin-3-yl]-methanol]	
< 100	O[C@@H](c1nccs1)[C@H]1CCCN(c2nnnc3cc(N4CCOCC4)ccc23)C1 [compound 1, (R)-[(S)-1-(7-Morpholin-4-yl-benzo[d]-1,2,3-triazin-4-yl)-piperidin-3-yl]-thiazol-2-yl-methanol]	
< 100	COc1ccc([C@H](O)[C@H]2CCCN(c3nnnc4cc(N5CCOCC5)ccc34)C2)cn1 [compound 17, (R)-(6-Methoxy-pyridin-3-yl)-[(S)-1-(7-morpholin-4-ylbenzo[d]-1,2,3-triazin-4-yl)-piperidin-3-yl]-methanol]	
< 100	O[C@H](c1nccs1)[C@@H]1CCCN(c2nnnc3cc(N4CCOCC4)ccc23)C1 [compound 2, (S)-[(R)-1-(7-Morpholin-4-yl-benzo[d]-1,2,3-triazin-4-yl)-piperidin-3-yl]-thiazol-2-yl-methanol]	
< 100	Cc1csc([C@@H](O)[C@@H]2CCCN(c3nnnc4cc(N5CCOCC5)ccc34)C2)n1 [compound 6, (S)-(4-Methyl-thiazol-2-yl)-[(R)-1-(7-morpholin-4-ylbenzo[d]-1,2,3-triazin-4-yl)-piperidin-3-yl]-methanol]	
< 100	CCn1cc([C@@H](O)[C@H]2CCCN(c3nnnc4cc(N5CCOCC5)ccc34)C2)cn1 [compound 20, (S)-(1-Ethyl-1H-pyrazol-4-yl)-[(S)-1-(7-morpholin-4-ylbenzo[d]-1,2,3-triazin-4-yl)-piperidin-3-yl]-methanol]	
< 100	Cc1csc([C@H](O)[C@H]2CCCN(c3nnnc4cc(N5CCOCC5)ccc34)C2)n1 [compound 5, (R)-(4-Methyl-thiazol-2-yl)-[(S)-1-(7-morpholin-4-ylbenzo[d]-1,2,3-triazin-4-yl)-piperidin-3-yl]-methanol]	

Further lines, the compound ahead of its results:

Compound	IC50 (DNA-PK [1]; read-out: Bonding DNA-PK IC50) [nM]	other results
O[C@@H](c1nccs1)[C@@H]1CCCN(c2nnnc3cc(N4CCOCC4)ccc23)C1 [compound 3, (R)-[(R)-1-(7-Morpholin-4-yl-benzo[d]-1,2,3-triazin-4-yl)-piperidin-3-yl]-thiazol-2-yl-methanol]	< 100	
Cc1csc([C@H](O)[C@@H]2CCCN(c3nnnc4cc(N5CCOCC5)ccc34)C2)n1 [compound 7, (R)-(4-Methyl-thiazol-2-yl)-[(R)-1-(7-morpholin-4-ylbenzo[d]-1,2,3-triazin-4-yl)-piperidin-3-yl]-methanol]	< 100	
COc1ccc([C@@H](O)[C@H]2CCCN(c3nnnc4cc(N5CCOCC5)ccc34)C2)nn1 [compound 14, (S)-(6-Methoxy-pyridazin-3-yl)-[(S)-1-(7-morpholin-4-yl-benzo[d]-1,2,3-triazin-4-yl)-piperidin-3-yl]-methanol]	< 100	
C[C@](O)(c1nccs1)[C@H]1CCCN(c2nnnc3cc(N4CCOCC4)ccc23)C1 [compound 8, (R)-1-[(S)-1-(7-Morpholin-4-yl-benzo[d]-1,2,3-triazin-4-yl)-piperidin-3-yl]-1-thiazol-2-yl-ethanol]	< 100	
CC(C)n1cc([C@@H](O)[C@H]2CCCN(c3nnnc4cc(N5CCOCC5)ccc34)C2)cn1 [compound 18, (S)-(1-Isopropyl-1H-pyrazol-4-yl)-[(S)-1-(7-morpholin-4-yl-benzo[d]-1,2,3-triazin-4-yl)-piperidin-3-yl]-methanol]	< 100	
COc1ccc([C@H](O)[C@H]2CCCN(c3nnnc4cc(N5CCOCC5)ccc34)C2)nn1 [compound 15, (R)-(6-Methoxy-pyridazin-3-yl)-[(S)-1-(7-morpholin-4-yl-benzo[d]-1,2,3-triazin-4-yl)-piperidin-3-yl]-methanol]	< 100	
Cc1nc([C@H](O)[C@@H]2CCCN(c3nnnc4cc(N5CCOCC5)ccc34)C2)sc1C [compound 10, (R)-(4,5-Dimethyl-thiazol-2-yl)-[(R)-1-(7-morpholin-4-ylbenzo[d]-1,2,3-triazin-4-yl)-piperidin-3-yl]-methanol]	< 100	
O[C@H](c1nccs1)[C@H]1CCCN(c2nnnc3cc(N4CCOCC4)ccc23)C1 [(S)-[(S)-1-(7-morpholin-4-ylbenzo[d]-1,2,3-triazin-4-yl)piperidin-3-yl]thiazol-2-ylmethanol]		IC50 (DNA-PK [1]; read-out: biochemical activity (assay from Example 4)): 1 nM; cellular activity (assay from Example 5) [2]: sub-micromolar
Cc1csc([C@@H](O)[C@H]2CCCN(c3nnnc4cc(N5CCOCC5)ccc34)C2)n1 [compound 4, (S)-(4-Methyl-thiazol-2-yl)-[(S)-1-(7-morpholin-4-ylbenzo[d]-1,2,3-triazin-4-yl)-piperidin-3-yl]-methanol]	< 100	
O=c1cc(N2CCOCC2)oc2c(-c3ccccc3)cccc12 [LY294002]		increase in sensitivity to ionising irradiation in cellular terms (mammal cells): weak increase
O=c1cc(N2CCOCC2)oc2c(-c3cccc4c3sc3ccccc34)cccc12 [NU-7441]		IC50 (DNA-PK [3]): 20 nM
CCN1CCN(CC(=O)Nc2ccc(-c3cccc4c(=O)cc(N5CCOCC5)oc34)c3sc4ccccc4c23)CC1 [KU-0060648]		solubility profile in aqueous medium [4]: improved solubility profile; inhibition of kinases of the PI3K isoenzyme family [5]: potently inhibited
